Experimental data reported in patent US10208007B2, “Use of strigolactones and strigolactone analogs for treating proliferative conditions” (The State of Israel, Ministry of Agriculture & Rural …, priority 2011, dated 2019).

Key:
pP38 = test: Immunoblot with densitometric quantification; type: cell-based, human
Procedure: Protein concentration was determined using the BCA Protein Assay (Pierce), and 20-50 μg of lysate were separated in a 4-12% SDS-PAGE gel. After transfer, membranes were blocked for 15-30 min at room temperature in 5% BSA (Sigma) in Tris-buffered saline containing 0.1% Tween-20. Primary antibody was incubated for either 1.5 hours at room temperature or overnight at 4° C. Secondary antibody was incubated for 30-45 min at room temperature, and proteins were visualized with West Pico Stable (Pierce). […]
(§1) Densitometric quantifications were carried out using ImageJ software (NIMH).
To investigate the signaling mechanisms elicited by strigolactone analogs in cancer cells, MDA-MB-231, DU145 and HCT116 cells were treated with strigolactone analogs for 1, 4 or 8 hours and lysates were analyzed by immuno-blotting. […]
Immunoblot analysis of MDA-MB-231 and HCT116 cells treated with strigolactone analogs was performed. […] At 4 hours and 8 hours, pP38 levels increased 5 fold and 13 fold respectively following ST-362 treatment compared to vehicle controls (FIG. 13B—a bar graph showing densitometric quantification of pP38 levels as shown in FIG. 13A). […]

JNK1/2 phosphorylation = test: Immunoblot with densitometric quantification; type: cell-based, human
Procedure: (§2) Protein concentration was determined using the BCA Protein Assay (Pierce), and 20-50 μg of lysate were separated in a 4-12% SDS-PAGE gel. After transfer, membranes were blocked for 15-30 min at room temperature in 5% BSA (Sigma) in Tris-buffered saline containing 0.1% Tween-20. Primary antibody was incubated for either 1.5 hours at room temperature or overnight at 4° C. Secondary antibody was incubated for 30-45 min at room temperature, and proteins were visualized with West Pico Stable (Pierce). All antibodies were used at 1:1000 dilution unless otherwise stated. pT308AKT, AKT, pT180/Y182, pT183/Y185 P38MAPK, pP38MAPK, pT202/Y204 pERK1/2, ERK1, pT183/Y185, pJNK1/2, JNK1, pT71ATF2, pT581MSK1, pT14 Cdc2, Cdc2, pT68Chk2 (cell signaling), pT334MAPKAPK, pS82HSP27 (Cell Signaling Technology, Danvers, Mass.), α-tubulin (Biomarkers, 1:50,000), Cyclin B1 (Santa Cruz Biotechnologies) and horseradish peroxidase-conjugated anti-rabbit IgG and anti-mouse IgG (1:5,000, Pierce).
as §1
(§3) To investigate the signaling mechanisms elicited by strigolactone analogs in cancer cells, MDA-MB-231, DU145 and HCT116 cells were treated with strigolactone analogs for 1, 4 or 8 hours and lysates were analyzed by immuno-blotting. The family of MAPK enzymes plays a pivotal role in cell growth, survival and cellular stress responses. The best characterized MAPKs fall into three families: (i) the mitogen activated extracellular signal regulated kinases (ERK1/2) which are activated in response to positive proliferation signals, (ii) c-Jun amino (N)-terminal kinases (JNK1/2/3) and (iii) p38 isoforms (p38α, β, γ, δ), all are activated by environmental stress stimuli such as DNA damage, UV irradiation and inflammatory cytokines.

pERK1/2 = test: Immunoblot with densitometric quantification; type: cell-based, human; settings: DU145, after 1 hour
Procedure: as §2, §1, §3

GRIM REAPER (GRI) = test: Gene transcription level by quantitative PCR: GRI; type: in vivo, Arabidopsis thaliana
Procedure: Seeds of homozygous lines of Arabidopsis thaliana wild type (WT; Columbia; Col-0) and max2-1 mutant (http://abrc.osu.edu/) were surface-sterilized and germinated on 1/2 Murashige and Skoog (MS) plates supplemented with 1% sucrose and solidified with 0.7% agar. Plates were incubated vertically in the dark at 4° C. for two days to synchronize germination. Three days after germination, seedlings were gently transferred using forceps to 1/2 MS plates containing various concentrations of GR-24 as a mixture of four diastereomers: (±)-GR-24 and (±)-2'-epi-GR-24. The root tip of the transferred seedling was marked on the plates. The plates remained unsealed to prevent accumulation of gases (e.g., ethylene), and were positioned in an upright 45° position, and incubated at 22° C. with a light intensity of […] m-2 s-1 provided by white fluorescent tubes and under a photoperiod of 16 hours exposure to light/8 hours in the dark for 6-12 days. GR-24 treatments were conducted at concentrations ranging from 2.7×10^-6 to 13.5×10^-6 M. […] GR-24, ST-357 and ST-362 were initially dissolved in acetone to give a 4.5 mM, 10 μM and 10 μM solutions, respectively, which were then further diluted with double-distilled sterile water (DDW). […] In each of the experiments, non-treated roots were compared to the respective acetone control. Where no difference was observed between the various controls, non-treated roots are shown. Where differences were recorded between non-treated and acetone controls, the comparison was made between GR-24, ST-357 and ST-362-treated and acetone-treated roots. RNA was extracted from seedlings grown and treated as described in Example 1. Quantitative PCR was performed by amplifying fragments of genes of interest (Tables 6 & 7). Arabidopsis 15S ribosomal RNA (GenBank accession no. AT1G04270.1) served as the reference gene for the amount of RNA, and was amplified using specific primers (forward) [NT] and (reverse) [NT]. The experiment was performed in 5-6 biological replicates; each replicate included 8 plants, on which 3 technical repeats were performed. Means and standard error were determined from all biological replicates. Primers were designed using PrimerQuest software (Integrated DNA Technologies). RNA was extracted using Trizol (Invitrogen, Carlsbad, Calif., USA) using the manufacturer's protocol. 1 μg RNA was reverse-transcribed in a total volume of 20 μl using the Superscript First strand cDNA synthesis kit (Invitrogen). […] The expression of each target gene was normalized to the expression of GAPDH RNA and is presented as the ratio of the target gene to GAPDH RNA, expressed as 2-ΔCt, where Ct is the threshold cycle and ΔCt=[NT] […]

For `CC1=CC(O/C=C2/C(=O)c3c(c4cc(-c5scc6c5OCCO6)ccc4n3C)C2C)OC1=O` (stereo not drawn) [ST-362, (2E)-2-[(2,5-dihydro-4-methyl-5-oxofuran-2-yloxy)methylene]-1,2-dihydro-7-(2,3-dihydrothieno[3,4-b][1,4]dioxin-7-yl)-1,4-dimethyl-cyclopenta[b]indole-3-(4H)-one], the “pP38 levels increase compared to vehicle controls” value (pP38; MDA-MB-231, 4 hours) was 5 fold and the “pP38 levels increase compared to vehicle controls” value (pP38; MDA-MB-231, 8 hours) was 13 fold.

In the case of `CC1=CC(O/C=C2\Cc3c(n(C)c4cc(-c5cccs5)ccc34)C2=O)OC1=O` (racemic) [MEB-55, (±) 2E-4-methyl-2-(4-methyl-5-oxo-2,5-dihydrofuran-2-yloxymethylene)-6-thiophen-2-yl-1,4-dihydro-2H-cyclopenta[b]indol-3-one], the JNK1/2 phosphorylation increase (JNK1/2 phosphorylation; DU145, 4 hours) is reported as 15 fold, the “Decrease of JNK1/2 phosphorylation from the 4 hours level” value (JNK1/2 phosphorylation; DU145, 8 hours) is reported as 50% and the pERK1/2 levels reduction (pERK1/2) is reported as 4 fold.

For `CC1=C[C@H](O/C=C2/C(=O)O[C@@H]3c4ccccc4C[C@H]23)OC1=O` (relative stereo) [GR-24, (3aR*,8bS*,E)-3-(((R*)-4-methyl-5-oxo-2,5-dihydrofuran-2-yloxy)methylene)-3,3a,4,8b-tetrahydro-2H-indeno[1,2-b]furan-2-one], the “GRI gene expression induction” value (GRIM REAPER (GRI); 3 μM) was 2.3 fold, the “GRI transcription level versus controls” value (GRIM REAPER (GRI); WT seedlings, 3 μM) was 33.008 ± 7.121 and the GRI gene transcription (GRIM REAPER (GRI); max2-1 mutants) was “not induced”. The “GRI transcription level versus controls” value (GRIM REAPER (GRI); max2-1 seedlings, 3 μM) was 0.214 ± 0.193.
